GI50 and IC50 data for 13 compounds are collected here from patent US20260070903A1, “NOVEL PYRIDO[3,4-D]PYRIMIDIN-8-ONE DERIVATIVE HAVING PROTEIN KINASE INHIBITORY ACTIVITY, AND PHARMACEUTICAL COMPOSITION FOR PREVENTING, ALLEVIATING, OR TREATING CANCER, COMPRISING SAME” (KOREA INSTITUTE OF SCIENCE AND TECHNOLOGY, priority 2019, published 2026).

The structures appear in SMILES notation.

The subject of one assay is OCI-AML3 (N-Ras Q61L). The experiment in a line: Proliferation inhibitory activity, OCI-AML3. The format is cell-based, human. The method, then:
(§1) The inhibitory activities of the compounds of the present disclosure against the proliferation of the mt-NRAS (G12D) Ba/F3 and OCI-AML3 (mt-NRAS) cell lines were measured and the GI50 values thereof were calculated.

The test system of a further assay is Ba/F3 (N-Ras G12D). Briefly: Proliferation inhibitory activity, Ba/F3 N-Ras G12D. The format is cell-based. How it is done: as §1
The target of the next assay is ACK1 (Homo sapiens, UniProt Q07912). Briefly: Inhibitory activity against ACK1 kinase (IC50). The format is biochemical. How it is done:
(§2) The inhibitory activities of the compounds of the present disclosure against two kinases, GCK and ACK1, were measured, and the IC50 values thereof were calculated.

In another assay the target is T1, GCK (Homo sapiens, UniProt Q12851).
T1 sequence (Q12851 1-820): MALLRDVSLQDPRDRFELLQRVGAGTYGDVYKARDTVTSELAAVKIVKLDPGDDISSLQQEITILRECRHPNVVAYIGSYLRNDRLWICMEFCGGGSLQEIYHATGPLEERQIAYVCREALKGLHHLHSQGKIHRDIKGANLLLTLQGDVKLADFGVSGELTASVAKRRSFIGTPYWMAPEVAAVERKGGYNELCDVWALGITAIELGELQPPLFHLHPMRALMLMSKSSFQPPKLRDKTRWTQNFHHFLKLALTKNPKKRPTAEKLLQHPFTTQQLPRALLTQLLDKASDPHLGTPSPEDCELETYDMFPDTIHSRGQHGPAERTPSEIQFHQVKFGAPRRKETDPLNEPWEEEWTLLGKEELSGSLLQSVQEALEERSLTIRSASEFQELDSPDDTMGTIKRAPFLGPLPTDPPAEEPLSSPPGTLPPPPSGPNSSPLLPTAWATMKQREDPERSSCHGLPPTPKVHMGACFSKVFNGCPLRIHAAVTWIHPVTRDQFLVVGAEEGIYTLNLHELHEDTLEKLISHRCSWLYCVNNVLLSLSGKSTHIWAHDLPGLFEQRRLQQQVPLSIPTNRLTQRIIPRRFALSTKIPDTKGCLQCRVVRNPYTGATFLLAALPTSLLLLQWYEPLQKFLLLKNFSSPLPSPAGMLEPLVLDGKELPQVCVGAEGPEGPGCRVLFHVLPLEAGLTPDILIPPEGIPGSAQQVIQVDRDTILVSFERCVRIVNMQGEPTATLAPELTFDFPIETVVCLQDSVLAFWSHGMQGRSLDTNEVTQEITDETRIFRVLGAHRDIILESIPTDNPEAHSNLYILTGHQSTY
Briefly: Inhibitory activity against GCK kinase (IC50). The class given is biochemical. How it is done: as §2

Sequence of ACK1 (Q07912 whole entry): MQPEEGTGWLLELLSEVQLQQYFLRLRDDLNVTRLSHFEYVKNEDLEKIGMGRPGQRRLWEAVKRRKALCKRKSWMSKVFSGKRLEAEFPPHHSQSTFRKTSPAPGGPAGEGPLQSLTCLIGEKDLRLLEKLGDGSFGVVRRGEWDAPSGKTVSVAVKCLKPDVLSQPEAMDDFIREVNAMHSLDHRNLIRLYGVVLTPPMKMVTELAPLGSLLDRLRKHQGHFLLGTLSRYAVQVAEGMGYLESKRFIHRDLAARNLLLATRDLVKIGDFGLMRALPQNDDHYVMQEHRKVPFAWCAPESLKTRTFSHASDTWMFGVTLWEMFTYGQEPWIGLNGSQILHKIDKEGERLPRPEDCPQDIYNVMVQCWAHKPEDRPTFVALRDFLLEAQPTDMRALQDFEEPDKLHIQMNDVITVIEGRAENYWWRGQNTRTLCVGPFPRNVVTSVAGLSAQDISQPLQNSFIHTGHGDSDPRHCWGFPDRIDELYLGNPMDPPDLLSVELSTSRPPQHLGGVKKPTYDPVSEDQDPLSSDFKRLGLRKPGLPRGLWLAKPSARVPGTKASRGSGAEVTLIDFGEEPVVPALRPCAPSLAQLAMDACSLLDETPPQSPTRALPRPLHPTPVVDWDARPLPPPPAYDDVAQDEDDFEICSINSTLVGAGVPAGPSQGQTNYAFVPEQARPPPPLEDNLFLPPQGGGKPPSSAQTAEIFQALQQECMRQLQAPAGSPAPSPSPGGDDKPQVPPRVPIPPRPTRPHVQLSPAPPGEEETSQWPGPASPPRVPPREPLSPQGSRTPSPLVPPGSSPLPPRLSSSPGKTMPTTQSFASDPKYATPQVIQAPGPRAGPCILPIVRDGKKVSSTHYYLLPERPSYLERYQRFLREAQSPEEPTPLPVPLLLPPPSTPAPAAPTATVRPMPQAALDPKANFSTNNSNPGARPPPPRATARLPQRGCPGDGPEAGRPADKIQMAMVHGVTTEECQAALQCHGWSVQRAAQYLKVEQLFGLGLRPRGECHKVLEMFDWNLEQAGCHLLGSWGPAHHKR

With `Cc1ccc(NC(=O)c2cccc(C(F)(F)F)c2)cc1-c1cc2cnc(NC3CC3)nc2c(=O)n1C` [Compound No. 1, N-(3-(2-(cyclopropylamino)-7-methyl-8-oxo-7,8-dihydropyrido[3,4-d]pyrimidin-6-yl)-4-methylphenyl)-3-(trifluoromethyl)benzamide], the GI50 (commonly the concentration that inhibits growth by half) in the assay on OCI-AML3 (N-Ras Q61L) (Homo sapiens, OCI-AML-3) was in the range of 0.5 to 3 µM; in the assay on Ba/F3 (N-Ras G12D) (Mus musculus, BaF3), 0.5 to 3 µM.

In the case of `Cc1ccc(NC(=O)c2cccc(C(F)(F)F)c2)cc1-c1cc2cnc(NCCO)nc2c(=O)n1C` [Compound No. 2, N-(3-(2-((2-hydroxyethyl)amino)-7-methyl-8-oxo-7,8-dihydropyrido[3,4-d]pyrimidin-6-yl)-4-methylphenyl)-3-(trifluoromethyl)benzamide], the GI50 lay in the range of 0.5 to 3 µM with OCI-AML3 (N-Ras Q61L) (Homo sapiens, OCI-AML-3) and 0.5 to 3 µM in the assay with Ba/F3 (N-Ras G12D) (Mus musculus, BaF3).

`Cc1ccc(NC(=O)c2cccc(C(F)(F)F)c2)cc1-c1cc2cnc(NCCN3CCOCC3)nc2c(=O)n1C` [Compound No. 6, N-(4-methyl-3-(7-methyl-2-((2-morpholinoethyl)amino)-8-oxo-7,8-dihydropyrido[3,4-d]pyrimidin-6-yl)phenyl)-3-(trifluoromethyl)benzamide]: the GI50 with OCI-AML3 (N-Ras Q61L) (Homo sapiens, OCI-AML-3) lay within 0.5 to 3 µM; in the assay on Ba/F3 (N-Ras G12D) (Mus musculus, BaF3), 0.5 to 3 µM.

For the compound `COc1ccc(CNc2ncc3cc(-c4cc(NC(=O)c5cccc(C(F)(F)F)c5)ccc4C)n(C)c(=O)c3n2)cc1` [Compound No. 10, N-(3-(2-((4-methoxybenzyl)amino)-7-methyl-8-oxo-7,8-dihydropyrido[3,4-d]pyrimidin-6-yl)-4-methylphenyl)-3-(trifluoromethyl)benzamide], the GI50 in the assay on OCI-AML3 (N-Ras Q61L) (Homo sapiens, OCI-AML-3) is over 5 µM; in the assay on Ba/F3 (N-Ras G12D) (Mus musculus, BaF3) it was over 5 µM.

On to `Cc1ccc(NC(=O)c2cccc(C(F)(F)F)c2)cc1-c1cc2cnc(NCCSCc3ccco3)nc2c(=O)n1C` [Compound No. 11, N-(3-(2-((2-((furan-2-ylmethyl)thio)ethyl)amino)-7-methyl-8-oxo-7,8-dihydiropyrido[3,4-d]pyrimidin-6-yl)-4-methylphenyl)-3-(trifluoromethyl)benzamide], for which the GI50 with OCI-AML3 (N-Ras Q61L) (OCI-AML3 (N-Ras Q61L)) was 3 to 5 µM; with Ba/F3 (N-Ras G12D) (Ba/F3 (N-Ras G12D)) it was over 5 µM.

For `Cc1ccc(NC(=O)c2cccc(C(F)(F)F)c2)cc1-c1cc2cnc(N3CCOCC3)nc2c(=O)n1C` [Compound No. 12, N-(4-methyl-3-(7-methyl-2-morpholino-8-oxo-7,8-dihydropyrido[3,4-d]pyrimidin-6-yl)phenyl)-3-(trifluoromethyl)benzamide], the GI50 with OCI-AML3 (N-Ras Q61L) (Homo sapiens, OCI-AML-3) is 0.5 to 3 µM; in the assay on Ba/F3 (N-Ras G12D) (Mus musculus, BaF3) it was over 5 µM.

For the compound `Cc1ccc(Nc2ncc3cc(-c4cc(NC(=O)c5cccc(C(F)(F)F)c5)ccc4C)n(C)c(=O)c3n2)cn1` [Compound No. 13, N-(4-methyl-3-(7-methyl-2-((6-methylpyridin-3-yl)amino)-8-oxo-7,8-dihydropyrido[3,4-d]pyrimidin-6-yl)phenyl)-3-(trifluoromethyl)benzamide], the IC50 (usually the midpoint of a concentration-inhibition curve) is under 100 nM at ACK1 and 100 to 1000 nM against GCK. Besides, the GI50 in the assay with OCI-AML3 (N-Ras Q61L) (Homo sapiens, OCI-AML-3) was under 0.5 µM; with Ba/F3 (N-Ras G12D) (Mus musculus, BaF3), under 0.5 µM.

As to `Cc1ccc(NC(=O)c2cccc(C(F)(F)F)c2)cc1-c1cc2cnc(Nc3ccc(C(=O)N(C)C)cc3)nc2c(=O)n1C` [Compound No. 15], the GI50 fell in the range of 0.5 to 3 µM in the assay with OCI-AML3 (N-Ras Q61L) (Homo sapiens, OCI-AML-3) and 0.5 to 3 µM in the assay with Ba/F3 (N-Ras G12D) (Mus musculus, BaF3).

Regarding `CCN1CCN(c2ccc(Nc3ncc4cc(-c5cc(NC(=O)c6cccc(C(F)(F)F)c6)ccc5C)n(C)c(=O)c4n3)cc2)CC1` [Compound No. 17, N-(3-(2-((4-(4-ethylpiperazin-1-yl)phenyl)amino)-7-methyl-8-oxo-7,8-dihydropyrido[3,4-d]pyrimidin-6-yl)-4-methylphenyl)-3-(trifluoromethyl)benzamide], the GI50 with OCI-AML3 (N-Ras Q61L) (Homo sapiens, OCI-AML-3) is under 0.5 µM; in the assay on Ba/F3 (N-Ras G12D) (Mus musculus, BaF3) it was 0.5 to 3 µM.

As for `Cc1ccc(NC(=O)c2cccc(C(F)(F)F)c2)cc1-c1cc2cnc(Nc3ccc(N4CCC(O)CC4)cc3)nc2c(=O)n1C` [Compound No. 19, N-(3-(2-((4-(4-hydroxypiperidin-1-yl)phenyl)amino)-7-methyl-8-oxo-7,8-dihydropyrido[3,4-d]pyrimidin-6-yl)-4-methylphenyl)-3-(trifluoromethyl)benzamide], the GI50 in the assay on OCI-AML3 (N-Ras Q61L) (Homo sapiens, OCI-AML-3) lay within 0.5 to 3 µM; in the assay with Ba/F3 (N-Ras G12D) (Mus musculus, BaF3) it was 0.5 to 3 µM.

On to `COc1cc(N2CCOCC2)ccc1Nc1ncc2cc(-c3cc(NC(=O)c4cccc(C(F)(F)F)c4)ccc3C)n(C)c(=O)c2n1` [Compound No. 22, N-(3-(2-((2-methoxy-4-morpholinophenyl)amino)-7-methyl-8-oxo-7,8-dihydropyrido[3,4-d]pyrimidin-6-yl)-4-methylphenyl)-3-(trifluoromethyl)benzamide], for which the GI50 in the assay on OCI-AML3 (N-Ras Q61L) (Homo sapiens, OCI-AML-3) is over 5 µM; in the assay with Ba/F3 (N-Ras G12D) (Mus musculus, BaF3), over 5 µM.

On to `Cc1ccc(NC(=O)c2cccc(C(F)(F)F)c2)cc1-c1cc2cnc(NC3CC3)nc2c(=O)[nH]1` [Compound No. 53, N-(3-(2-(cyclopropylamino)-8-oxo-7,8-dihydropyrido[3,4-d]pyrimidin-6-yl)-4-methylphenyl)-3-(trifluoromethyl)benzamide], for which the half-inhibitory concentration (IC50) against ACK1 was under 100 nM; at GCK, 100 to 1000 nM. The GI50 with OCI-AML3 (N-Ras Q61L) (Homo sapiens, OCI-AML-3) was under 0.5 µM; in the assay on Ba/F3 (N-Ras G12D) (Mus musculus, BaF3), under 0.5 µM.

Take `Cc1ccc(Nc2ncc3cc(-c4cc(NC(=O)c5cccc(C(F)(F)F)c5)ccc4C)[nH]c(=O)c3n2)cn1` [Compound No. 54, N-(4-methyl-3-(2-((6-methylpyridin-3-yl)amino)-8-oxo-7,8-dihydropyrido[3,4-d]pyrimidin-6-yl)phenyl)-3-(trifluoromethyl)benzamide]: the GI50 was under 0.5 µM with OCI-AML3 (N-Ras Q61L) (Homo sapiens, OCI-AML-3) and 0.5 to 3 µM with Ba/F3 (N-Ras G12D) (Mus musculus, BaF3).
